# Assay results as given in ChEMBL document CHEMBL5674860, “Optimized Dual-Glo Assay to identify co-culture-induced drug vulnerabilities in 3D CRC models” (2024).
# Legend:
# Type in all cases: functional, Homo sapiens
# Parameters in all cases: dose or concentration left out as unconfirmed
# Colon cancer organoid [1] = experiment: Optimized Dual-Glo assay to identify co-culture induced drug vulnerabilities using donated chemical probes and chemogenomics kinase set in O20 CRC organoid and F20 CAF mono and co-culture. […] Cell viability is reported both mono and co-culture models.
# Colon cancer organoid [2] = experiment: Optimized Dual-Glo assay to identify co-culture induced drug vulnerabilities using donated chemical probes and chemogenomics kinase set in O06 CRC organoid and F06 CAF mono and co-culture. […] Cell viability is reported both mono and co-culture models.
# Colon cancer organoid [3] = experiment: Optimized Dual-Glo assay to identify co-culture induced drug vulnerabilities using donated chemical probes and chemogenomics kinase set in O14 CRC organoid and F14 CAF mono and co-culture. […] Cell viability is reported both mono and co-culture models.
# [4] = Culture type Co-Culture, Transduced with Lucferase2-P2A-EGFP lentivirus
# [5] = Culture type Co-Culture, Transduced with Renilla-dsRed lentivirus
# [6] = Culture type Mono-Culture, Transduced with Lucferase2-P2A-EGFP lentivirus
# [7] = Culture type Mono-Culture, Transduced with Renilla-dsRed lentivirus
Structure (SMILES),Cell Viability (Colon cancer organoid [1]; [4]) [%],Cell Viability (Colon cancer organoid [1]; [5]) [%],Cell Viability (Colon cancer organoid [1]; [6]) [%],Cell Viability (Colon cancer organoid [1]; [7]) [%],Cell Viability (Colon cancer organoid [2]; [4]) [%],Cell Viability (Colon cancer organoid [2]; [5]) [%],Cell Viability (Colon cancer organoid [2]; [6]) [%],Cell Viability (Colon cancer organoid [2]; [7]) [%],Cell Viability (Colon cancer organoid [3]; [4]) [%],Cell Viability (Colon cancer organoid [3]; [5]) [%],Cell Viability (Colon cancer organoid [3]; [6]) [%],Cell Viability (Colon cancer organoid [3]; [7]) [%]
CCN1CCN(c2ccc(Nc3cc(N(C)C(=O)Nc4c(Cl)c(OC)cc(OC)c4Cl)ncn3)cc2)CC1 [INFIGRATINIB],101.104,52.242,73.2403,44.318,0.6967,125.024,12.6822,113.181,13.9667,230.084,45.8266,126.071
FC(F)(F)c1ccc2c(c1)nc(-c1cccnc1)n2C1CC1 [MSD-CYP11B2-Negative-control],98.8357,114.7,79.6989,74.5522,103.115,83.1787,99.8949,100.759,79.1334,88.6801,68.2082,99.4361
CO[C@@H](C)c1c(Nc2ccc([C@H](N(C)C(=O)C3CCS(=O)(=O)CC3)C(F)(F)F)cc2)cnc2cc(Cl)nn12 [NVS-MALT1],87.8486,98.697,70.7423,82.2292,54.3511,83.5282,80.0936,98.6896,62.6088,105.477,102.315,101.932
CC1(C)C(N)=Nc2cc(OCCCCN3Cc4ccc(OCc5cn(CC(=O)N6CCC(CCN7CCCC7)CC6)nn5)cc4C3)c(OCC3CC3)cc21,70.4635,125.652,114.565,111.957,65.2251,114.368,80.2418,105.711,75.997,107.884,116.341,106.753
C[C@@H](NC(=O)Nc1cc2[nH]ncc2c(CO)n1)c1ccccc1 [ERKi],50.0756,135.339,64.2382,68.0141,117.766,104.277,23.2555,96.7542,33.887,108.528,11.5857,66.9878
Cn1cc(Cl)c2c(Oc3c(F)cc(Nc4cc(Cl)nc(N)n4)cc3F)ccnc21 [BAY-4900],91.184,109.2,84.5951,91.9324,121.536,149.241,59.0633,101.592,109.877,85.9396,108.551,92.3665
Cc1cc(=O)n(C)c2cc(N3C(=O)CC[C@H](NS(=O)(=O)CC(C)C)[C@H]3c3ccc(Cl)cc3)ccc12,107.11,166.434,116.867,106.138,117.914,167.751,110.238,116.926,75.0892,148.008,105.721,116.483
CNc1nc(Nc2cnn([C@H]3CCN(C4COC4)C[C@@H]3F)c2Cl)ncc1C(F)(F)F,199.298,86.9942,108.189,89.737,94.4056,87.0484,128.459,108.44,116.318,104.728,169.727,102.216
COc1ccc(Oc2cc(NCCC(F)(F)F)c3ncc(-c4ccc(C(=O)NC5CC5)c(C)c4)n3n2)c(F)c1F [BAY-1217389],10.1003,184.891,6.085,72.716,5.893,100.303,6.114,52.2962,15.963,131.783,28.3238,88.2574
COc1ccc(CCc2nc3cc(-c4c(C)noc4C)ccc3n2C[C@H](C)N2CCOCC2)cc1Cl,95.7417,133.846,83.4803,106.755,78.634,97.126,66.152,156.889,90.4848,144.282,124.855,138.359
O[C@H]1CC[C@H](Nc2ncc3nc(Nc4c(F)cc(F)cc4F)n([C@H]4CCOC4)c3n2)CC1 [TANZISERTIB],129.23,97.8883,76.6269,101.702,96.802,109.826,106.51,114.573,101.857,126.192,105.608,109.828
CCOC(=O)CCNc1cc(N2CCc3ccccc3CC2)nc(-c2cccnc2)n1,102.18,131.422,61.9891,99.1525,130.773,124.082,90.274,111.34,62.9469,109.109,99.8423,94.8955
Cl.Cl.NC1(c2ccc(-c3nc4ccn5c(=O)[nH]nc5c4cc3-c3ccccc3)cc2)CCC1,44.0229,145.22,34.39,114.515,52.26,91.614,79.8603,69.8373,42.2425,103.472,90.3868,88.3443
CNCc1ccccc1-c1csc([C@@H](C)Nc2nc(C)nc3cc(OC)c(OC)cc23)c1 [BAY-293],78.2703,145.24,64.4683,82.7466,76.9111,225.989,4.78,87.8539,46.6211,132.811,47.2835,107.217
N#CC1(c2ccccn2)CCN(Cc2cc(C(=O)O)c(=O)n3ccccc23)CC1 [MSD-M1PAM],53.1969,117.537,81.9362,89.7444,12.088,188.309,35.5128,99.638,126.16,122.221,72.0486,98.779
CN(C)C(=O)c1ccc(-c2cc(C(=O)N[C@@H]3CCc4ccccc43)no2)cc1O,98.4389,104.475,121.813,120.44,113.879,93.2478,92.6679,134.315,73.2649,147.75,80.1245,134.73
CN(C)C(=O)N1CC[C@H](NC2=Nc3cc(F)ccc3N(CC(F)F)c3ccc(Cl)cc32)C1,71.357,98.2431,112.934,109.328,158.864,159.783,102.875,125.077,130.518,98.5664,108.387,90.4728
OCCn1cc(-c2cnc3nnn(Cc4ccc5ncccc5c4)c3n2)cn1 [PF-04217903],121.611,97.2338,113.154,101.829,88.0795,107.387,104.073,94.3108,71.8183,123.95,91.8486,91.0833
